Patent US9115092B2, “Substituted quinazoline and pyrido-pyrimidine derivatives” (Asana Biosciences, LLC, priority 2010, dated 2015)

Key:
[1] = biological target: T1, PI3Kα (wild-type), P110/P85α (Homo sapiens, UniProt P42336); test: PI3 Kinase TR-FRET assay, PI3Kα (wild-type); type: biochemical
T1 construct: made in house; host or cells: SF9 insect cells
In short: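 Sf9-expressed His-purified P110/P85α (5 ng) preincubated 60 min RT with compound and PIP2 in buffer with 40 mM MgCl2, 5 mM DTT; reaction started with ATP (PIP2 and ATP both 10 μM), 30 min RT. PIP3 detected by TR-FRET displacement, 665/615 nm ratio; IC50 from dose-response curves.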

[2] = biological target: T2, mTOR kinase (Homo sapiens, UniProt P42345); test: mTOR kinase TR-FRET assay; type: biochemical; settings: read-out: mTO R
T2 construct: purchased Millipore, USA
In short: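 Compounds preincubated 60 min with mTOR (5 ng) in HEPES pH 7.5, EGTA, MnCl2; ULight-p70 S6K Thr389 peptide (50 nM) and ATP (20 μM) then added, 60 min at room temperature. EDTA-stopped, Eu-anti-phospho antibody detection by TR-FRET (665/615 nm); IC50 from variable-slope sigmoidal fit.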

[3] = tested on: pS6RP(S235/236), PC3 cells; test: In-cell Western assay, pS6RP(S235/236) in PC3 cells; type: cell-based, human
Experimental: Cells from human prostate cancer cell line PC3 (American Type Culture Collection (ATCC), Manassas, Va. 20108 USA) were seeded at an optimal density of 22,000 cell/well in 96-well plates containing Ham's F12K medium (90 μL) and incubated overnight. The compound dilutions were carried out in 100% DMSO followed by a dilution in the medium. Test compounds were added in serial dilutions to the wells and incubated for 2 h. The cells were washed and fixed with 4% paraformaldehyde. After incubation at room temperature for 1 h in the dark, blocking was done for 2 h at room temperature. Primary antibodies for phosphorylated (p) AKT(5473) (phosphorylated at serine 473), pAKT(T308) (phosphorylated at threonine 308) and for pS6RP(S235/236) (phosphorylated at serine 235/236) (commercially available from Cell Signaling Technology®, whose protocol was followed for the in-cell western assay, were diluted to the required concentration and added to the corresponding wells followed by overnight incubation at 4° C. Eu-labeled rabbit (PE) (Perkin-Elmer USA catalog #AD0106) secondary antibody was added and incubated for 2 h at room temperature. Delfia® enhancement solution (cat #1244-105, Perkin Elmer USA) was subsequently added to the plate before taking the reading at 615 nm with excitation wavelength of 340 nm, after which 0.5 μg/mL of Hoechst® 33258 dye (Catalog #86140-5, Sigma) was added to the plate and fluorescence emission was read at 460 nm with 355 nm excitation, to evaluate the correction factor. IC50 values were calculated using a sigmoidal dose-response curve fit in GraphPad Prism® v5 software.

[4] = tested on: PC3 cells; test: XTT assay for cell viability, PC3 cells; type: cell-based, human
In short: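 PC3 cells seeded at 1000 cells/well, grown 24 h, then exposed to serial dilutions of compound for 96 h. Viability read by XTT dye at 37° C, absorbance 465 nm. EC50 from sigmoidal dose-response fit.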

[5] = Homo sapiens, PC-3, In-cell Western
[6] = Homo sapiens, PC-3, cell viability

T1 sequence (P42336 whole entry): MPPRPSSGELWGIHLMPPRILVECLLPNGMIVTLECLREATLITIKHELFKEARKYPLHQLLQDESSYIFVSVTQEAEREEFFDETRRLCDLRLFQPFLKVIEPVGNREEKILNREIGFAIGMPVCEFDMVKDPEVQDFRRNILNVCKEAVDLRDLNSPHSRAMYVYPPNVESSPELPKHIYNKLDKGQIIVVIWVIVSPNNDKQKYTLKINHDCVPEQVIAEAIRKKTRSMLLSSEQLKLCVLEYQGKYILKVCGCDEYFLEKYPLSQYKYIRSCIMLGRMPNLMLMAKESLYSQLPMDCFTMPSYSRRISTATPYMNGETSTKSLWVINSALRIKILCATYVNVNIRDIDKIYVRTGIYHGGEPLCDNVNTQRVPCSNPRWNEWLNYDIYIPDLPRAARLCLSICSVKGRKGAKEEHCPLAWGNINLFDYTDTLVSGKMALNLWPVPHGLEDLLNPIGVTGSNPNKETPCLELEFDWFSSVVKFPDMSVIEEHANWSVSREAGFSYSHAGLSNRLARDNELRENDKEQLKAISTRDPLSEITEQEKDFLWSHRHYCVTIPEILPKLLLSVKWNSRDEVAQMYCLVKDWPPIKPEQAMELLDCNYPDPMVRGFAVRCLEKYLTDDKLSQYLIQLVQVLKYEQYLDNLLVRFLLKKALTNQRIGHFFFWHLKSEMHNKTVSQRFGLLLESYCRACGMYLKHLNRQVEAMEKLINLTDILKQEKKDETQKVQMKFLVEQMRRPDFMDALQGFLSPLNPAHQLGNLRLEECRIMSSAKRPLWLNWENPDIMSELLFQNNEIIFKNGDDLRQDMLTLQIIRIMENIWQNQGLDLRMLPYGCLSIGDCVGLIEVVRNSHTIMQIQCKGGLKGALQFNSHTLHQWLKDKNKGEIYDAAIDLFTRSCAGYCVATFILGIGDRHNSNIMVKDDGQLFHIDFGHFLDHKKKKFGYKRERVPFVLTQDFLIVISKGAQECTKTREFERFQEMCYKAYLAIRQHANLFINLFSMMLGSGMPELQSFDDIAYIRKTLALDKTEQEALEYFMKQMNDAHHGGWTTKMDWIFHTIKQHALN
T1 sequence (P27986 whole entry partner): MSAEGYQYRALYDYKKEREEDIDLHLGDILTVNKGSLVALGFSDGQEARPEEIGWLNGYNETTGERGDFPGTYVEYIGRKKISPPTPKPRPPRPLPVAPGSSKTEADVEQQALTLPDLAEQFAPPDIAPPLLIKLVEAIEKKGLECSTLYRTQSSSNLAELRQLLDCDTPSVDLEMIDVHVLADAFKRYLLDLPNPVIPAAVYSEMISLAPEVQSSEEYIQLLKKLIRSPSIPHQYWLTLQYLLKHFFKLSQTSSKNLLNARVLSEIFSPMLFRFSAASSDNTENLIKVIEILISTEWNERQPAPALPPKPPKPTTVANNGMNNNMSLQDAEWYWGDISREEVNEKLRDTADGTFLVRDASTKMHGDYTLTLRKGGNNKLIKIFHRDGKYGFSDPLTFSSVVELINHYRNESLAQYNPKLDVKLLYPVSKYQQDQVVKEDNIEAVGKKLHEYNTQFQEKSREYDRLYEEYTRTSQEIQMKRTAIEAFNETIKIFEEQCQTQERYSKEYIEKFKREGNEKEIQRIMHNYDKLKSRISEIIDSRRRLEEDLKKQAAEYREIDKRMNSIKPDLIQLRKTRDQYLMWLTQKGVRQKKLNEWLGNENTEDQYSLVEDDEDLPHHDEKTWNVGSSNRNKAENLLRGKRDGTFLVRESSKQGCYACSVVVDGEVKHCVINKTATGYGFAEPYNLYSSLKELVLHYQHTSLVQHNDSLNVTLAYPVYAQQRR

SMILES | IC50 [1] | IC50 [2] | IC50 [3, 5] | IC50 [4, 6] | IC50 ([3]; In-cell Western) | IC50 ([4]; cell viability)
CN(C)CCN(C)C(=O)c1ccc(NC(=O)Nc2ccc(-c3nc(N4CCOCC4)c4ccc(-c5ccncc5)cc4n3)cc2)cc1 [Example 72, N-(2-dimethylamino-ethyl)-N-methyl-4-{3-[4-(4-morpholin-4-yl-7-pyridin-4-yl-quinazolin-2-yl)-phenyl]-ureido}-benzamide] | < 0.05 µM | < 0.05 µM | < 0.1 µM | 0.1 to 0.5 µM |  | 
CN(C)C(=O)c1ccc(NC(=O)Nc2ccc(-c3nc(N4CCOCC4)c4ccc(-c5ccco5)cc4n3)cc2)cc1 [Example 80, N,N-dimethyl-4-(3-{4-[7-(furan-2-yl)-4-morpholin-4-yl-quinazolin-2-yl]-phenyl}-ureido)-benzamide] | < 0.05 µM | < 0.05 µM |  |  | < 0.1 µM | < 0.1 µM
CN(C)C1CCN(C(=O)c2ccc(NC(=O)Nc3ccc(-c4nc(N5CCOCC5)c5ccc(-c6cccnc6F)cc5n4)cn3)cc2)CC1 [Example 81, 1-(4-(4-(dimethylamino)piperidine-1-carbonyl)phenyl)-3-(5-(7-(2-fluoropyridin-3-yl)-4-morpholine-quinazolin-2-yl)pyridin-2-yl)urea] | < 0.05 µM | < 0.05 µM | < 0.1 µM | 0.501 to 5 µM |  | 
CN(C)CCn1cc(-c2ccc3c(N4CCOCC4)nc(-c4ccc(NC(=O)Nc5ccc(C(=O)N(C)C)cc5)cc4)nc3c2)cn1 [Example 83, 4-(3-(4-(7-(1-(2-(dimethylamino)ethyl)-1H-pyrazol-4-yl)-4-morpholino-quinazolin-2-yl)phenyl)ureido)-N,N-dimethyl-benzamide] | 0.05 to 0.2 µM | < 0.05 µM | 0.201 to 10 µM | 0.201 to 10 µM |  | 
CN(C)C(=O)c1ccc(NC(=O)Nc2ccc(-c3nc(N4CCOCC4)c4ccc(-c5cncnc5)cc4n3)cc2F)cc1 [Example 84, 4-(3-(2-fluoro-4-(4-morpholino-7-(pyrimidin-5-yl)quinazolin-2-yl)phenyl)ureido)-N,N-dimethyl-benzamide] | 0.05 to 0.2 µM | < 0.05 µM | 0.201 to 10 µM | 0.201 to 10 µM |  | 
CN(C)C(=O)c1ccc(NC(=O)Nc2ccc(-c3nc(N4CCOCC4)c4ncc(-c5cnn(C)c5)cc4n3)cn2)cc1 [Example 85, N,N-dimethyl-4-(3-(5-(7-(1-methyl-1H-pyrazol-4-yl)-4-morpholino-pyrido[3,2-d]pyrimidin-2-yl)pyridin-2-yl)ureido)-benzamide] | < 0.05 µM | < 0.05 µM | 0.201 to 10 µM | 0.201 to 10 µM |  | 
CN(C)C(=O)c1ccc(NC(=O)Nc2ccc(-c3nc(N4CCOCC4)c4ccc(-c5ccnnc5)cc4n3)cc2)cc1 [Example 86, N,N-dimethyl-4-(3-(4-(4-morpholino-7-(pyridazin-4-yl)quinazolin-2-yl)phenyl)ureido)-benzamide] | 0.05 to 0.2 µM | < 0.05 µM | 0.201 to 10 µM | 0.201 to 10 µM |  | 
Cc1ccc(-c2cc3nc(-c4ccc(NC(=O)Nc5ccc(C(=O)N(C)C)cc5)cc4)nc(N4CCOCC4)c3cc2F)o1 [Example 87, 4-(3-(4-(6-fluoro-7-(5-methylfuran-2-yl)-4-morpholino-quinazolin-2-yl)phenyl)ureido)-N,N-dimethyl-benzamide] | 0.05 to 0.2 µM | < 0.05 µM | < 0.1 µM | < 0.1 µM |  | 
CNC(=O)c1ccc(NC(=O)Nc2ccc(-c3nc(N4CCOCC4)c4ccc(-c5cncnc5)cc4n3)cc2)cc1 [Example 88, N-methyl-4-(3-(4-(4-morpholino-7-(pyrimidin-5-yl)quinazolin-2-yl)phenyl)ureido)-benzamide] | 0.05 to 0.2 µM | < 0.05 µM | < 0.1 µM | 0.201 to 10 µM |  | 
CNC(=O)c1ccc(NC(=O)Nc2ccc(-c3nc(N4CCOCC4)c4ncc(-c5cnn(C)c5)cc4n3)cc2)cc1 [Example 89, N-methyl-4-(3-(4-(7-(1-methyl-1H-pyrazol-4-yl)-4-morpholino-pyrido[3,2-d]pyrimidin-2-yl)phenyl)ureido)-benzamide] | < 0.05 µM | < 0.05 µM | 0.201 to 10 µM | 0.201 to 10 µM |  | 
CN(C)C(=O)c1ccc(NC(=O)Nc2ccc(-c3nc(N4CCOCC4)c4ccc(-c5cccnc5F)cc4n3)cc2F)cc1 [Example 91, 4-(3-(2-fluoro-4-(7-(2-fluoropyridin-3-yl)-4-morpholino-quinazolin-2-yl)phenyl)ureido)-N,N-dimethyl-benzamide] | < 0.05 µM | < 0.05 µM | 0.201 to 10 µM | 0.201 to 10 µM |  | 
CN(C)C(=O)c1ccc(NC(=O)Nc2ccc(-c3nc(N4CCOCC4)c4ncc(-c5cnc(N)nc5)cc4n3)cc2)cc1 [Example 92, 4-(3-(4-(7-(2-aminopyrimidin-5-yl)-4-morpholino-pyrido[3,2-d]pyrimidin-2-yl)phenyl)ureido)-N,N-dimethyl-benzamide] | < 0.05 µM | < 0.05 µM | 0.201 to 10 µM | 0.201 to 10 µM |  | 
Cc1ccncc1-c1cnc2c(N3CCOCC3)nc(-c3ccc(NC(=O)Nc4ccc(C(=O)N(C)C)cc4)cc3)nc2c1 [Example 93, N,N-dimethyl-4-(3-(4-(7-(4-methylpyridin-3-yl)-4-morpholino-pyrido[3,2-d]pyrimidin-2-yl)phenyl)ureido)-benzamide] | < 0.05 µM | < 0.05 µM | 0.201 to 10 µM | 0.201 to 10 µM |  | 
COc1ncc(-c2cnc3c(N4CCOCC4)nc(-c4ccc(NC(=O)Nc5ccc(C(=O)N(C)C)cc5)cc4)nc3c2)cn1 [Example 94, 4-(3-(4-(7-(2-methoxypyrimidin-5-yl)-4-morpholino-pyrido[3,2-d]pyrimidin-2-yl)phenyl)ureido)-N,N-dimethyl-benzamide] | < 0.05 µM | < 0.05 µM | 0.201 to 10 µM | 0.201 to 10 µM |  | 
COc1cccc(-c2ccc3c(N4CCOCC4)nc(-c4ccc(NC(=O)Nc5ccc(C(=O)N(C)C)cc5)cc4)nc3c2)n1 [Example 95, 4-(3-(4-(7-(6-methoxypyridin-2-yl)-4-morpholino-quinazolin-2-yl)phenyl)ureido)-N,N-dimethyl-benzamide] | 0.05 to 0.2 µM | 0.05 to 0.2 µM | 0.501 to 5 µM | < 0.1 µM |  | 
CN(C)C(=O)c1ccc(NC(=O)Nc2ccc(-c3nc(N4CCOCC4)c4ncc(-c5ccnnc5)cc4n3)cc2)cc1 [Example 96, N,N-dimethyl-4-(3-(4-(4-morpholino-7-(pyridazin-4-yl)pyrido[3,2-d]pyrimidin-2-yl)phenyl)ureido)-benzamide] | < 0.05 µM | < 0.05 µM | 0.201 to 10 µM | 0.201 to 10 µM |  | 
CN(C)C(=O)c1ccc(NC(=O)Nc2ccc(-c3nc(N4CCOCC4)c4ccc(-c5cnn(C)c5)cc4n3)cc2F)cc1 [Example 97, 4-(3-(2-fluoro-4-(7-(1-methyl-1H-pyrazol-4-yl)-4-morpholino-quinazolin-2-yl)phenyl)ureido)-N,N-dimethyl-benzamide] | < 0.05 µM | < 0.05 µM | 0.201 to 10 µM | 0.201 to 10 µM |  | 
CN(C)C(=O)c1ccc(NC(=O)Nc2ccc(-c3nc(N4CCOCC4)c4ccc(-c5ccnnc5)cc4n3)cc2F)cc1 [Example 98, 4-(3-(2-fluoro-4-(4-morpholino-7-(pyridazin-4-yl)quinazolin-2-yl)phenyl)ureido)-N,N-dimethyl-benzamide] | 0.05 to 0.2 µM | < 0.05 µM | 0.201 to 10 µM | 0.201 to 10 µM |  | 
CN(C)C(=O)c1ccc(NC(=O)Nc2ccc(-c3nc(N4CCOCC4)c4cc(F)c(-c5cncnc5)cc4n3)cc2F)cc1 [Example 99, 4-(3-(2-fluoro-4-(6-fluoro-4-morpholino-7-(pyrimidin-5-yl)quinazolin-2-yl)phenyl)ureido)-N,N-dimethyl-benzamide] | < 0.05 µM | < 0.05 µM | 0.201 to 10 µM | 0.201 to 10 µM |  | 
Cc1ccncc1-c1ccc2c(N3CCOCC3)nc(-c3ccc(NC(=O)Nc4ccc(C(=O)N(C)C)cc4)c(F)c3)nc2c1 [Example 100, 4-(3-(2-fluoro-4-(7-(4-methylpyridin-3-yl)-4-morpholino-quinazolin-2-yl)phenyl)ureido)-N,N-dimethyl-benzamide] | < 0.05 µM | < 0.05 µM | 0.201 to 10 µM | 0.201 to 10 µM |  | 
